The results in this text go back to patent publication US20130131178A1, “USE OF OXALOACETATE IN THE TREATMENT OF ISCHAEMIA” (UNIVERSIDADE DE SANTIAGO DE COMPOSTELA, priority 2010, published 2013).

Format in all cases: in vivo, male Sprague-Dawley (SD) rats
Test [1] concerns blood glutamate levels. As to the kind of experiment: Effect of oxaloacetate administration on blood glutamate and aspartate levels in healthy animals. Also noted: effect on glutamate levels: dose or concentration left out as unconfirmed. On the procedure: The oxaloacetate used (Sigma-Aldrich, Ref, 171263, 95%) was dissolved in saline solution to a concentration of 10 mg/mL and the pH adjusted to 7.4. […]
(§1) The study protocols for male Sprague-Dawley (SD) rats (Charles River Laboratories; France) weighing between 300 and 350 g were approved by the Animal Use and Care Committee at the Hospital de Santiago de Compostela.
Anaesthesia was induced by inhalation of 5% sevoflurane in a mixture of nitrous oxide and oxygen (70/30). A rectal temperature of 37.5° C. was maintained. Glucose levels (180-220 mg/dL) were analysed prior to the intervention.
(§2) Aspartate and glutamate levels in blood were analysed according to the method described in the following reference (White, J. A., R. J. Hart, and J. C. Fry, An evaluation of the Waters Pico-Tag system for the amino-acid analysis of food materials. J Automat Chem, 1986. 8(4): p. 170-7).
Likewise, no changes in aspartate levels were observed (FIG. 1b).
This increase in aspartate levels confirms that glutamate is being metabolised by the enzyme GOT as a result of oxaloacetate treatment.
The […] and aspartate levels in blood were established in a control group treated with saline.

For test [2], the system named is blood glutamate levels. The test can be described thus: Effect of oxaloacetate on blood glutamate levels in an animal model of focal ischaemia (MCAO). The settings on record: 3.5 mg/100 g IV 90 minutes post-occlusion, 4 hours post-occlusion. On the procedure: The oxaloacetate used (Sigma-Aldrich, Ref, 171263, 95%) was dissolved in saline solution to a concentration of 10 mg/mL and the pH adjusted to 7.4. As the average weight of the experimental animals was 325 g and the dose administered was 3.5 mg/100 g body weight, each animal received an average volume of 1.2 mL of 10 mg/mL oxaloacetate.
as §1
Anaesthesia was induced by inhalation of 5% sevoflurane in a mixture of nitrous oxide and oxygen (70/30). A rectal temperature of 37.5° C. was maintained. Glucose levels (180-220 mg/dL) were analysed prior to the intervention. […]
as §2
Two groups were designed: an MCAO group treated with saline (control group) and an MCAO group treated with 3.5 mg/100 g oxaloacetate IV 90 minutes post-occlusion. The blood glutamate levels and infarct and oedema volumes were determined in both groups. […]

In test [3] the test system is Middle cerebral artery occlusion (MCAO) model of cerebral ischaemia. The test can be described thus: Infarct and oedema volumes by magnetic resonance imaging in the MCAO model of cerebral ischaemia. The settings on record: 3.5 mg/100 g IV 90 minutes post-occlusion. On the procedure:
The oxaloacetate used (Sigma-Aldrich, Ref, 171263, 95%) was dissolved in saline solution to a concentration of 10 mg/mL and the pH adjusted to 7.4. As the average weight of the experimental animals was 325 g and the dose administered was 3.5 mg/100 g body weight, each animal received an average volume of 1.2 mL of 10 mg/mL oxaloacetate. The study protocols for male Sprague-Dawley (SD) rats (Charles River Laboratories; France) weighing between 300 and 350 g were approved by the Animal Use and Care Committee at the Hospital de Santiago de Compostela. Anaesthesia was induced by inhalation of 5% sevoflurane in a mixture of nitrous oxide and oxygen (70/30). A rectal temperature of 37.5° C. was maintained. Glucose levels (180-220 mg/dL) were analysed prior to the intervention. Middle cerebral artery occlusion (MCAO) was used as a model of cerebral ischaemia, as described in the literature (Longa, E. Z., et al., Reversible middle cerebral artery occlusion without craniectomy in rats. Stroke, 1989. 20(1): p. 84-91). […] The infarct and oedema volumes were determined by magnetic resonance imaging. […] The blood glutamate levels and infarct and oedema volumes were determined in both groups. […]

Structures are written as SMILES.

With `O=C(O)CC(=O)C(=O)O` [oxaloacetate], in the test with blood glutamate levels [1] (administration via bolus (IV)), the “effect on glutamate levels” value was “no effect”. Moreover, the “decrease in serum glutamate levels with respect to basal levels” value in the test with blood glutamate levels [1] (healthy animals, 3.5 mg/100 g IV, two hours post-administration) was 60%. Further, in the test on blood glutamate levels [2], the “drop of blood glutamate levels below basal levels” value stood at 50%. The “infarct volume smaller than in the control group” value in test [3] (24 hours post-ischaemia) was “approximately 40%”. Also, the “decrease of infarct volume” value in test [3] (at 7 days) is 80%.
